We go through 23 compounds from US4326054A, “Cleomycins and process for producing same” (Zaidan Hojin Biseibutsu Kagaku Kenkyu Kai, priority 1979, dated 1982).

This test relates to Mycobacterium smegmatis ATCC 607. The test can be described thus: Antimicrobial activity, agar plate-cylinder method, bleomycin A2 as standard (1,000 u/mg). The format is cell-based. Particulars: Table 5; copper-free form; relative to bleomycin A2 = 1,000 u/mg. The method, then:
Typical examples of the biological activities measured on cleomycins (copper-free form) are illustrated below.
Comparison was made with the relevant antibiotics bleomycins. The relative antimicrobial potency (u/mg) against Mycobacterium smegmatis ATCC 607 was measured by agar plate-cylinder method using bleomycin A2 as a standard (1,000 u/mg).
(Note: The antimicrobial potency was determined by taking bleomycin
A2 as 1,000 μ/mg and using Mycobacterium smegmatis ATCC 607 as a
test bacterium. Herinafter, the same was applied.)
With `Cc1c(N)nc(C(CC(N)=O)NCC(N)C(N)=O)nc1C(=O)NC(C(=O)NC(C)C(O)C(C)C(=O)NC(C(=O)NCCc1nc(-c2nc(C(=O)NCCCNC(C)CCN)cs2)cs1)C1(O)CC1)C(OC1OC(CO)C(O)C(O)C1OC1OC(CO)C(O)C(OC(N)=O)C1O)c1cnc[nH]1` (centres unmarked) [compound 21, 3-(3-amino-1-methylpropylamino)propylaminocleomycin], the Antimicrobiral potency is given as 2,620 u/mg. Then `Cc1c(N)nc(C(CC(N)=O)NCC(N)C(N)=O)nc1C(=O)NC(C(=O)NC(C)C(O)C(C)C(=O)NC(C(=O)NCCc1nc(-c2nc(C(=O)NCCCNCCc3ccccn3)cs2)cs1)C1(O)CC1)C(OC1OC(CO)C(O)C(O)C1OC1OC(CO)C(O)C(OC(N)=O)C1O)c1cnc[nH]1` (centres unmarked) [compound 41, 3-[2-(2-pyridyl)ethylamino]propylaminocleomycin], with 6,068 u/mg; and `Cc1c(N)nc(C(CC(N)=O)NCC(N)C(N)=O)nc1C(=O)NC(C(=O)NC(C)C(O)C(C)C(=O)NC(C(=O)NCCc1nc(-c2nc(C(=O)NCCCNCCCCCCN)cs2)cs1)C1(O)CC1)C(OC1OC(CO)C(O)C(O)C1OC1OC(CO)C(O)C(OC(N)=O)C1O)c1cnc[nH]1` (centres unmarked) [compound 44, 3-(6-aminohexylamino)propylaminocleomycin], with 3,520 u/mg; and `Cc1c(N)nc(C(CC(N)=O)NCC(N)C(N)=O)nc1C(=O)NC(C(=O)NC(C)C(O)C(C)C(=O)NC(C(=O)NCCc1nc(-c2nc(C(=O)NCCCNCc3ccccc3)cs2)cs1)C1(O)CC1)C(OC1OC(CO)C(O)C(O)C1OC1OC(CO)C(O)C(OC(N)=O)C1O)c1cnc[nH]1` (centres unmarked) [compound 32, 3-benzylaminopropylaminocleomycin], with 6.977 u/mg. Then `Cc1c(N)nc(C(CC(N)=O)NCC(N)C(N)=O)nc1C(=O)NC(C(=O)NC(C)C(O)C(C)C(=O)NC(C(=O)NCCc1nc(-c2nc(C(=O)NCCN)cs2)cs1)C1(O)CC1)C(OC1OC(CO)C(O)C(O)C1OC1OC(CO)C(O)C(OC(N)=O)C1O)c1cnc[nH]1` (centres unmarked) [Compound No. 3, 2-aminoethylaminocleomycin], with 2,760 u/mg; and `Cc1c(N)nc(C(CC(N)=O)NCC(N)C(N)=O)nc1C(=O)NC(C(=O)NC(C)C(O)C(C)C(=O)NC(C(=O)NCCc1nc(-c2nc(C(=O)NCCCCN)cs2)cs1)C1(O)CC1)C(OC1OC(CO)C(O)C(O)C1OC1OC(CO)C(O)C(OC(N)=O)C1O)c1cnc[nH]1` (centres unmarked) [compound 5, 4-aminobutylaminocleomycin], with 1,935 u/mg. The value for `Cc1c(N)nc(C(CC(N)=O)NCC(N)C(N)=O)nc1C(=O)NC(C(=O)NC(C)C(O)C(C)C(=O)NC(C(=O)NCCc1nc(-c2nc(C(=O)NCCCN(C)CCCNCc3ccccc3)cs2)cs1)C1(O)CC1)C(OC1OC(CO)C(O)C(O)C1OC1OC(CO)C(O)C(OC(N)=O)C1O)c1cnc[nH]1` (centres unmarked) [compound 46, 3-[N-methyl-N-(3-benzylaminopropyl)]aminopropylcleomycin] was 7,660 u/mg. With `Cc1c(N)nc(C(CC(N)=O)NCC(N)C(N)=O)nc1C(=O)NC(C(=O)NC(C)C(O)C(C)C(=O)NC(C(=O)NCCc1nc(-c2nc(C(=O)NCCc3cnc[nH]3)cs2)cs1)C1(O)CC1)C(OC1OC(CO)C(O)C(O)C1OC1OC(CO)C(O)C(OC(N)=O)C1O)c1cnc[nH]1` (centres unmarked) [compound 40, 2-(4-imidazolyl)ethylaminocleomycin], the Antimicrobiral potency is listed as 1,147 u/mg. Then `Cc1c(N)nc(C(CC(N)=O)NCC(N)C(N)=O)nc1C(=O)NC(C(=O)NC(C)C(O)C(C)C(=O)NC(C(=O)NCCc1nc(-c2nc(C(=O)NCCCNCCCNC3CCCCC3)cs2)cs1)C1(O)CC1)C(OC1OC(CO)C(O)C(O)C1OC1OC(CO)C(O)C(OC(N)=O)C1O)c1cnc[nH]1` (centres unmarked) [compound 37, 3-(3-cyclohexylaminopropylamino)propylaminocleomycin], with 14,784 u/mg; and `Cc1c(N)nc(C(CC(N)=O)NCC(N)C(N)=O)nc1C(=O)NC(C(=O)NC(C)C(O)C(C)C(=O)NC(C(=O)NCCc1nc(-c2nc(C(=O)NCCCNCCCCN)cs2)cs1)C1(O)CC1)C(OC1OC(CO)C(O)C(O)C1OC1OC(CO)C(O)C(OC(N)=O)C1O)c1cnc[nH]1` (centres unmarked) [compound 6, 3-(4-aminobutylamino)propylaminocleomycin], with 3,575 u/mg; and `Cc1c(N)nc(C(CC(N)=O)NCC(N)C(N)=O)nc1C(=O)NC(C(=O)NC(C)C(O)C(C)C(=O)NC(C(=O)NCCc1nc(-c2nc(C(=O)NCCCNCCCN3CCOCC3)cs2)cs1)C1(O)CC1)C(OC1OC(CO)C(O)C(O)C1OC1OC(CO)C(O)C(OC(N)=O)C1O)c1cnc[nH]1` (centres unmarked) [compound 28, 3-(3-morpholinopropylamino)propylaminocleomycin], with 1,715 u/mg.

Take `Cc1c(N)nc(C(CC(N)=O)NCC(N)C(N)=O)nc1C(=O)NC(C(=O)NC(C)C(O)C(C)C(=O)NC(C(=O)NCCc1nc(-c2nc(C(=O)NCCCNCCCN(C)C)cs2)cs1)C1(O)CC1)C(OC1OC(CO)C(O)C(O)C1OC1OC(CO)C(O)C(OC(N)=O)C1O)c1cnc[nH]1` (centres unmarked) [compound 19, 3-[3-(N,N-dimethylamino)propyl]propylaminocleomycin]: the Antimicrobiral potency is 2,004 u/mg. Then `COCCCNCCCNC(=O)c1csc(-c2csc(CCNC(=O)C(NC(=O)C(C)C(O)C(C)NC(=O)C(NC(=O)c3nc(C(CC(N)=O)NCC(N)C(N)=O)nc(N)c3C)C(OC3OC(CO)C(O)C(O)C3OC3OC(CO)C(O)C(OC(N)=O)C3O)c3cnc[nH]3)C3(O)CC3)n2)n1` (centres unmarked) [compound 31, 3-(3-methoxypropylamino)propylaminocleomycin], with 1,869 u/mg. Then `Cc1c(N)nc(C(CC(N)=O)NCC(N)C(N)=O)nc1C(=O)NC(C(=O)NC(C)C(O)C(C)C(=O)NC(C(=O)NCCc1nc(-c2nc(C(=O)NCCC[N+](C)(C)C)cs2)cs1)C1(O)CC1)C(OC1OC(CO)C(O)C(O)C1OC1OC(CO)C(O)C(OC(N)=O)C1O)c1cnc[nH]1` (centres unmarked) [compound 18, 3-(N,N,N-trimethylamino)propylaminocleomycin], with 878 u/mg; and `Cc1c(N)nc(C(CC(N)=O)NCC(N)C(N)=O)nc1C(=O)NC(C(=O)NC(C)C(O)C(C)C(=O)NC(C(=O)NCCc1nc(-c2nc(C(=O)NCCCNCCCN)cs2)cs1)C1(O)CC1)C(OC1OC(CO)C(O)C(O)C1OC1OC(CO)C(O)C(OC(N)=O)C1O)c1cnc[nH]1` (centres unmarked) [compound 43, 3-(3-aminopropylamino)propylaminocleomycin], with 2,790 u/mg.

Regarding `Cc1c(N)nc(C(CC(N)=O)NCC(N)C(N)=O)nc1C(=O)NC(C(=O)NC(C)C(O)C(C)C(=O)NC(C(=O)NCCc1nc(-c2nc(C(=O)NCCCN)cs2)cs1)C1(O)CC1)C(OC1OC(CO)C(O)C(O)C1OC1OC(CO)C(O)C(OC(N)=O)C1O)c1cnc[nH]1` (centres unmarked) [compound 4, 3-aminopropylaminocleomycin], the Antimicrobiral potency is on record as 2,150 u/mg. Then `Cc1c(N)nc(C(CC(N)=O)NCC(N)C(N)=O)nc1C(=O)NC(C(=O)NC(C)C(O)C(C)C(=O)NC(C(=O)NCCc1nc(-c2nc(C(=O)NCCCN3CCNCC3)cs2)cs1)C1(O)CC1)C(OC1OC(CO)C(O)C(O)C1OC1OC(CO)C(O)C(OC(N)=O)C1O)c1cnc[nH]1` (centres unmarked) [compound 13, 3-(1-piperazinyl)propylaminocleomycin], with 980 u/mg. With `Cc1c(N)nc(C(CC(N)=O)NCC(N)C(N)=O)nc1C(=O)NC(C(=O)NC(C)C(O)C(C)C(=O)NC(C(=O)NCCc1nc(-c2nc(C(=O)NCCCNCCCNC(C)c3ccccc3)cs2)cs1)C1(O)CC1)C(OC1OC(CO)C(O)C(O)C1OC1OC(CO)C(O)C(OC(N)=O)C1O)c1cnc[nH]1` (centres unmarked) [compound 14, 3-[3-(1-phenylethylamino)propylamino]propylaminocleomycin], the Antimicrobiral potency is listed as 11,420 u/mg. Then `Cc1c(N)nc(C(CC(N)=O)NCC(N)C(N)=O)nc1C(=O)NC(C(=O)NC(C)C(O)C(C)C(=O)NC(C(=O)NCCc1nc(-c2nc(C(=O)NCCCNCCCNCc3ccccc3)cs2)cs1)C1(O)CC1)C(OC1OC(CO)C(O)C(O)C1OC1OC(CO)C(O)C(OC(N)=O)C1O)c1cnc[nH]1` (centres unmarked) [compound 45, 3-(3-benzylaminopropylamino)propylaminocleomycin], with 8,400 u/mg; and `Cc1c(N)nc(C(CC(N)=O)NCC(N)C(N)=O)nc1C(=O)NC(C(=O)NC(C)C(O)C(C)C(=O)NC(C(=O)NCCc1nc(-c2nc(C(=O)NCCCN3CCOCC3)cs2)cs1)C1(O)CC1)C(OC1OC(CO)C(O)C(O)C1OC1OC(CO)C(O)C(OC(N)=O)C1O)c1cnc[nH]1` (centres unmarked) [compound 24, 3-morpholinopropylaminocleomycin], with 800 u/mg; and `Cc1c(N)nc(C(CC(N)=O)NCC(N)C(N)=O)nc1C(=O)NC(C(=O)NC(C)C(O)C(C)C(=O)NC(C(=O)NCCc1nc(-c2nc(C(=O)NCCNCC(C)O)cs2)cs1)C1(O)CC1)C(OC1OC(CO)C(O)C(O)C1OC1OC(CO)C(O)C(OC(N)=O)C1O)c1cnc[nH]1` (centres unmarked) [compound 12, 2-(2-hydroxypropylamino)ethylaminocleomycin], with 2,280 u/mg.

Regarding `Cc1c(N)nc(C(CC(N)=O)NCC(N)C(N)=O)nc1C(=O)NC(C(=O)NC(C)C(O)C(C)C(=O)NC(C(=O)NCCc1nc(-c2nc(C(=O)NCCCNCCCN3CCCC3)cs2)cs1)C1(O)CC1)C(OC1OC(CO)C(O)C(O)C1OC1OC(CO)C(O)C(OC(N)=O)C1O)c1cnc[nH]1` (centres unmarked) [compound 26, 3-[3-(1-pyrrolidinyl)propylamino]propylaminocleomycin], the Antimicrobiral potency was 3,590 u/mg. Then `Cc1c(N)nc(C(CC(N)=O)NCC(N)C(N)=O)nc1C(=O)NC(C(=O)NC(C)C(O)C(C)C(=O)NC(C(=O)NCCc1nc(-c2nc(C(=O)NCCCNCCCCCCO)cs2)cs1)C1(O)CC1)C(OC1OC(CO)C(O)C(O)C1OC1OC(CO)C(O)C(OC(N)=O)C1O)c1cnc[nH]1` (centres unmarked) [compound 42, 3-(6-hydroxyhexylamino)propylaminocleomycin], with 4,806 u/mg.
